In data set [1] the test system is MT-2 cells.
Experimental: (§1) For each viral inhibition assay, a cytotoxicity assay was performed in parallel on uninfected cells by adding 1/10 volume of alamarBlue (Thermo Fisher, Waltham, MA; DAL1199) to the plates, followed by thorough mixing. AlamarBlue-treated plates were incubated for 2 to 3 h at 37°C (the timing was optimized for the linear signal), mixed well, and read using a fluorescence plate reader with 560 nm and 590 nm as the excitation and emission settings, respectively (Synergy H1; BioTek Instruments, Inc.).
(§2) EC50 and CC50 values were determined in Excel using four-parameter logistic regression analysis of dose-response data generated from the viral inhibition or cytotoxicity assays, respectively. […] Average EC50 and CC50 values were calculated using the geometric mean and average values were reported with the geometric standard deviation (GSD).
The subject of data set [2] is HIV-1 (chronically infected H9 T cells, H9-HIV). Briefly: Inhibition of HIV-1 late events: virus production (αGag WB of pelleted virus). It counts as cell-based. As to conditions: Human immunodeficiency virus 1, T-cell.
The nature of data set [3]: in vitro. As to conditions: human. It counts as cell-based.
Data set [4] relates to HIV-1 (chronically infected H9 T cells, H9-HIV). Put plainly: Inhibition of HIV-1 late events: infectious virus production by H9-HIV cells. It counts as cell-based. As to conditions: Human immunodeficiency virus 1, 48 h, titered on TZM-bl cells, read-out: EC50INF (inhibition of infectivity of culture supernatant). The method, then:
For these experiments, we used H9-HIV, a chronically infected H9 T cell line. Compounds were diluted as described under MT-2 spreading infection above. […] To measure inhibition of virus production (Fig. 3B, blue graph and blot), PEG pelleted virus (harvested as described in “Virus pelleting” above) was analyzed by WB with αGag.

Data set [5] can be described thus: in vitro. As to conditions: human, CC50.
Experimental: as §1, §2
In data set [6] the test system is influenza A virus WSN/33 (H1N1) (FLUV). It counts as cell-based.
The next data set relates to HIV-1 NL4-3 RLuc. Put plainly: MT-2 spreading infection assay (inhibition of HIV-1 replication). As to conditions: for EC50: Human immunodeficiency virus 1, NL43, T-cell, 96 h, read-out: EC50 for inhibition of HIV-1 replication; for SI (CC50/EC50): from average values.
Data set [7] can be described thus: Cytotoxicity assay on SupT1.CCR5 cells. Particulars: human, SupT1.CCR5 cells (uninfected).
Experimental: as §1, §2
Data set [8] can be described thus: in vitro. Particulars: cat.
Experimental: as §1, §2
The test system of data set [9] is HIV-1 LAI pro– Δenv (pseudotyped with HIV-1 NL4-3 Env). Put plainly: MT-2 acute infection assay (VLP, intracellular Gag, assembly intermediates). As to conditions: MT-2 cells.
Experimental: For Fig. 3B, culture supernatants were collected at 48 h, and virus was pelleted by adding 75 μl of 17% PEG 6000–0.8 M NaCl–PBS to 75 μl of medium from the assay in a 96-well V-bottom polypropylene plate. PEG and media were incubated on ice for 2 h or overnight at 4°C. Virus was pelleted at 1,847 × g for 30 min at 4°C in the plate in an Allegra centrifuge (Beckman), and the pellet was resuspended in 50 μl of loading buffer with dithiothreitol for analysis by WB with αGag. For Fig. 4, culture supernatants were collected at 48 h postinfection and filtered through a 0.45-μm PES syringe filter to remove any remaining cells. Virus-like particles were centrifuged through a 30% (wt/vol) sucrose-PBS cushion at 130,000 × g, 30 min, and 4°C in an SW55Ti rotor (Beckman), and the virus pellet was harvested for analysis by WB with αGag.
MT-2 cells were diluted to 2 × 10^6 cells/ml with complete RPMI and bulk infected at an MOI of 1 for 2 h at 37°C. Compound was diluted 100-fold to the final required concentration with DMSO. The compound dilutions and DMSO-only controls were then further diluted 50-fold with complete RPMI, and 1 ml of the dilutions was added per well in a 12-well plate. Bulk-infected cells were then washed and adjusted to 0.5 × 10^6 cells/ml, and 1 ml of infected cells was added to each well containing diluted compound or DMSO. At 48 h, the medium was collected for virus pelleting as described above, and the cells were washed and lysed (see “Cell lysis” below).
MT-2 cells were collected and washed three times by pelleting at 200 × g for 5 min at 4°C in an Allegra centrifuge (Beckman) and resuspending cells in ice-cold PBS. Cell pellets were lysed with 250 μl lysis buffer (20 mM HEPES [pH 7.9], 14 mM potassium acetate, 1 mM MgCl2, 0.3% NP-40), followed by shearing 20× with a 20-gauge needle. Cell lysate was then clarified 200 × g for 10 min at 4°C in an Allegra centrifuge (Beckman). The supernatant was transferred to a fresh tube and further clarified by centrifugation at 18,000 × g for 10 min at 4°C in a Microfuge (Beckman), and the supernatant was transferred to a fresh tube.
To prepare gradients, 10, 15, 40, 50, 60, 70, and 80% (wt/vol) sucrose solutions were prepared with water, and then each was diluted 1/10 with a 10× stock of the lysis buffer used to harvest cells (see “Cell lysis”). For each gradient, ∼100 μl of cell lysate (∼100 μg of total protein) was layered on a 5-ml step gradient containing equivalent layers of each diluted sucrose solution prepared and subjected to velocity sedimentation in a Beckman MLS-50 rotor 217,000 × g for 45 min at 4°C. Gradients were fractionated from top to bottom, and pelleted material was harvested for WB. Aliquots of fractions and pellet were analyzed by SDS-PAGE, followed by WB with αGag.
Another data set relates to FIV 34TF10. Put plainly: FIV inhibition assay (spreading infection, RT activity). It counts as cell-based, feline immunodeficiency virus. Here is the method:
G355-5 cells were transfected in six-well plates, and each well was transfected with 2 μg per well of FIV 34TF10 ORFA+ proviral plasmid. At 24 h posttransfection, the cells were washed, and the medium was replaced with 4 ml of complete McCoy 5A. At 144 h posttransfection, the medium was filtered using a 0.45-μm syringe filter, aliquoted, and stored at −80°C. The reverse transcriptase (RT) activity in media from FIV or mock-transfected cells was estimated using SG-PERT ([94]). A set of recombinant RT standards (EMD Millipore, Molsheim, France; catalog no. 382129) ranging from 5.12E3 to 5.12E9 nU/ml was used to estimate the nU/ml of RT activity in the FIV stock.
Inhibition of FIV spreading infection was assayed using G355-5 cells, seeded on the prior day at 8,000 cells/well in a 96-well plate.

Another data set relates to PBMCs. Particulars: human.
Data set [10] concerns HIV-1 NL4-3. Briefly: PBMC spreading infection assay. It counts as cell-based. Here is the method:
Thawed, unstimulated PBMCs (BenTech, Seattle, WA) were pelleted by centrifugation 228 × g for 8 min in an Allegra centrifuge (Beckman, Brea, CA). Pellets were resuspended in activation medium containing RPMI supplemented with 21 ng/ml human interleukin-2 (IL-2; […] Remel, San Diego, CA; R30852801), 10% FBS, and 1% penicillin-streptomycin, at a density of 2 × 10^6 cells/ml. After a 3-day incubation, the cells were collected and resuspended in RPMI with 20% FBS and 10% DMSO and then frozen as 50 × 10^6 cells per vial. […] Compound dilutions were prepared in complete PBMC medium as described above, but without virus, and 100 μl of diluted compound was transferred to 96-well U-bottom plates. Bulk-infected cells were pelleted and resuspended in complete PBMC medium at 1 × 10^6 cells/ml, and 100 μl of cell suspension was transferred to each well at 100,000 cells per well with diluted compound. After 96 h, the medium was collected for relative infectivity measurements as for the SupT1.CCR5 spreading infection assay.

Data set [11] relates to MT-2 cells. Briefly: Cytotoxicity assay (alamarBlue) on uninfected MT-2 T cells. Particulars: uninfected MT-2 cells. (In general: Alamar Blue is a resazurin reagent that responds to reducing activity.)
Experimental: as §1, §2
The test system of data set [12] is HIV-1 NL4-3. It counts as cell-based. As to conditions: MT-2 cells, 37 weeks of selection.

SMILES strings stand for the structures. Where only a bound is given, the exact number is not on record here.

The results in this text go back to paper PMC7925099, “Identification of an Antiretroviral Small Molecule That Appears To Be a Host-Targeting Inhibitor of HIV-1 Assembly” (Journal of Virology, 2021).

Broadly, the inhibition is the relative decrease from the control value, in per cent.

Experimental for HIV-1 NL4-3 RLuc: Inhibition of HIV-1 viral replication was assayed in a spreading infection using MT-2 cells and NL4-3 RLuc reporter virus. For dose-response curves, compounds were initially diluted with DMSO to 100-fold the starting concentration in a 96-well plate and subjected to a series of 3-fold dilutions in DMSO for a total of eight or nine dilutions. If a single compound concentration was tested, the compound was diluted to 100-fold the desired concentration in DMSO. Compounds were then diluted 50-fold with infection media prepared by diluting NL4-3 RLuc virus stock to 400 IU/100 μl with complete RPMI. Then, 100 μl of 50-fold-diluted compound was transferred to 20,000 MT-2 cells that were preseeded in 96-well plates in 100 μl of complete RPMI for a final volume of 200 μl, followed by incubation at 37°C for 96 h. The final MOI in infected plates was 0.02, and the final DMSO concentration in all wells was 1%. All assays were run with three replicates. For each replicate, one well received DMSO only, and one well received medium only for normalization and background correction. […] Plates were read on a luminescence plate reader (Synergy H1; BioTek Instruments, Inc.).
as §2
Experimental for PBMCs: as §1, §2

As for `COc1cc(C)c(/C=C/C2NCCc3cc(OCc4ccccc4)c(OC)cc32)cc1OCc1ccccc1` (stereo not drawn) [PAV-117], the “CC50 (μM)” value in the data set on MT-2 cells [1] amounted to 1.4 ×/÷ 1.5 μM. For the same compound, the CC50 with MT-2 cells [1] (human) was 1100 nM; in “in vitro [3]”, 1600 nM; in “in vitro [5]”, 1000 nM; in data set [7], 1100 nM; in “in vitro [8]”, 1100 nM. The inhibition at 0.002 µM in data set [2] (2 nM, H9-HIV, WB of virus pellets, read-out: % inhibition of virus production (relative to DMSO)) stood at 2%. For the same compound, in data set [2] (5 nM, H9-HIV, WB of virus pellets, read-out: % inhibition of virus production (relative to DMSO)), the inhibition at 0.005 µM was found to be 7%. Further, the inhibition at 0.016 µM in data set [2] (16 nM, H9-HIV, WB of virus pellets, read-out: % inhibition of virus production (relative to DMSO)) is 7%. Also, the inhibition at 0.049 µM in data set [2] (49 nM, H9-HIV, WB of virus pellets, read-out: % inhibition of virus production (relative to DMSO)) was determined as 31%. Also, the inhibition at 0.148 µM in data set [2] (148 nM, H9-HIV, WB of virus pellets, read-out: % inhibition of virus production (relative to DMSO)) came out at 48%. Besides, the inhibition at 0.444 µM in [2] (444 nM, H9-HIV, WB of virus pellets, read-out: % inhibition of virus production (relative to DMSO)) was 86%. The inhibition at 1.333 µM in data set [2] (1333 nM, H9-HIV, WB of virus pellets, read-out: % inhibition of virus production (relative to DMSO)) amounted to 92%. Also, the inhibition at 4 µM in [2] (4000 nM, H9-HIV, WB of virus pellets, read-out: % inhibition of virus production (relative to DMSO)) worked out at 96%. Also, the inhibition at 10 µM in data set [2] (10000 nM, H9-HIV, WB of virus pellets, read-out: % inhibition of virus production (relative to DMSO)) amounted to 92%. For the same compound, the EC50 came out at 113 nM in data set [2] (H9-HIV cells, 48 h, αGag WB, read-out: EC50VLP (inhibition of virus production, p24 Gag in virus pellets)); 104 nM in [4]; 48 nM with HIV-1 NL4-3 RLuc; 595 nM with FIV 34TF10 (Feline immunodeficiency virus, feline G355-5 cells, FIV 34TF10, 144 h, RT activity, read-out: EC50 for inhibition of FIV replication). The “activity against FLUV (infectious titer)” value in [6] was “not active”. The “SI (CC50/EC50)” value in the data set with HIV-1 NL4-3 RLuc (MT-2 cells) is reported as 14. In addition, in the data set on HIV-1 NL4-3 RLuc (MT-2 cells, from the shown dose-response curve), the “selectivity index (CC50/EC50)” value is recorded as 21. The “∼EC70 (treatment concentration)” value in [9] (48 h treatment) is listed as approximately 0.25 nM. Further, the “steady-state levels of actin and GAPDH” value in data set [9] (48 h) is on record as “minimally affected”. For the same compound, in data set [9] (48 h, velocity sedimentation), the “steady-state level of the ∼500S intermediate as a percentage of total Gag” value is listed as “dose-dependent decrease”. In data set [9] (protease-deficient provirus, 48 h), the “VLP release into the supernatant” value was “dose-dependent reduction”. For the same compound, in data set [9] (highest PAV-117 concentration tested, 48 h), the “steady-state intracellular p55 Gag levels” value is reported as “some reduction”. For the same compound, the “fold by which FIV EC50 is lower than CC50 in G355-5 cells” value with FIV 34TF10 (G355-5 cells) is less than 2 fold.

With `COc1cc(C)c(/C=C/C2NCCc3cc(OCc4ccccc4)c(OC)cc32)cc1OC` (stereo not drawn) [PAV-206], the “CC50 (μM)” value in the data set with MT-2 cells [1] is reported as 2.2 ×/÷ 1.4 μM. For the same compound, the CC50PBMC with PBMCs came out at 3591 nM. Also, the selectivity index with HIV-1 NL4-3 [10] (HIV-1-infected PBMCs) worked out at 48. Further, the EC50 was 75 nM in the data set with HIV-1 NL4-3 [10] (Human immunodeficiency virus 1, NL43, PBMC, PHA-activated PBMCs, HIV-1 NL4-3, MOI 0.008, 96 h) and 34 nM with HIV-1 NL4-3 RLuc. The compound further had a CC50MT-2 with MT-2 cells [11] of 2811 nM. Also, the “resistance level reached: compound concentration allowing virus replication, fold higher than the EC50” value in the data set on HIV-1 NL4-3 [12] is 8 fold. Besides, the “SI (CC50/EC50)” value with HIV-1 NL4-3 RLuc (MT-2 cells) was 61.
